Data as given in ChEMBL document CHEMBL1135250, “Identification of a novel, orally bioavailable histamine H(3) receptor antagonist based on the 4-benzyl-(1H-imidazol-4-yl) template” (Bioorg Med Chem Lett, 2002).

Legend:
Histamine H3 receptor = Histamine H3 receptor (Cavia porcellus, UniProt Q9JI35); assay: (§1) Compound was evaluated for its binding affinity against Histamine H3 receptor of guinea pig brain membrane
[1] = target: Histamine H3 receptor (Cavia porcellus) (UniProt Q9JI35); assay: as §1; conditions: concentration not given here
Chain of Histamine H3 receptor (Cavia porcellus) (Q9JI35 whole entry): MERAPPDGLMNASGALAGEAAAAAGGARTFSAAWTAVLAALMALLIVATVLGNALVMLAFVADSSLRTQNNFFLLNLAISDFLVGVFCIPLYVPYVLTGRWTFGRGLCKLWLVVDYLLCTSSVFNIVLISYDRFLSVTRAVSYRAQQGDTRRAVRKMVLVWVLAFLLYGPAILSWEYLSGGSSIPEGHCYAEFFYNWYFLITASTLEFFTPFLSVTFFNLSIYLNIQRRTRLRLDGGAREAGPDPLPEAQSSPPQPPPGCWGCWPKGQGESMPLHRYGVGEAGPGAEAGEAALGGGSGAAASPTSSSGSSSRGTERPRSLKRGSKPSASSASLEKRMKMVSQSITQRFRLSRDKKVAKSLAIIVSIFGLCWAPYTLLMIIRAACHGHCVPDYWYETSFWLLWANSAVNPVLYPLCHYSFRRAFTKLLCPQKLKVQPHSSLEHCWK

[2] = target: Histamine H3 receptor (Cavia porcellus) (UniProt Q9JI35); assay: Compound was evaluated for its inhibitory activity against Histamine H3 receptor of guinea pig brain membrane at a concentration of 1 ug/mL
[3] = Pharmacokinetic parameter area under curve (AUC) was measured after administration into rat at 10 mg/kg; type: ADME, organism-based; design: dose 10 mg/kg; conditions: in vivo
[4] = Compound at a dose 10 mg/kg was administered to rat and was evaluated for bioavailability after administration into rat at 10 mg/kg; conditions: in vivo, read-out: Bioavailabiility
[5] = Antagonistic activity towards dopamine uptake was calculated; type: functional
[6] = target: T1, Alpha-2A adrenergic receptor (Homo sapiens) (UniProt P08913); assay: Antagonistic activity towards Alpha-2A adrenergic receptor was calculated; type: functional
T1 sequence (whole entry): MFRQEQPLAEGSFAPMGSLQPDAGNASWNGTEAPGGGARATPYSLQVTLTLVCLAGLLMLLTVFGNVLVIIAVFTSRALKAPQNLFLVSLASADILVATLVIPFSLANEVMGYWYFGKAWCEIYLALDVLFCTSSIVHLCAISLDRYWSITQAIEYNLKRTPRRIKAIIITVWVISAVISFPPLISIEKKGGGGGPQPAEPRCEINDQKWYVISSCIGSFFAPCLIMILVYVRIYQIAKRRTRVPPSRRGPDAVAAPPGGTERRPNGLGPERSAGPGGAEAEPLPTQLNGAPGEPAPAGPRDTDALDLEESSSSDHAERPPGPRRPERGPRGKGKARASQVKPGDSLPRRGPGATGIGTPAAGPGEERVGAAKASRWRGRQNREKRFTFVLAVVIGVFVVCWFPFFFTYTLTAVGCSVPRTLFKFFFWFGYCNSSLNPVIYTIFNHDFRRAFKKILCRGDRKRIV

Cercopithecidae = assay: Pharmacokinetic parameter area under curve (AUC) was measured after administration into monkey at 3 mg/kg; conditions: in vivo
[7] = Compound at a dose 3 mg/kg was administered to monkey and was evaluated for half life after administration into monkey at 3 mg/kg; type: ADME, organism-based; conditions: cercopithecidae, in vivo
[8] = Pharmacokinetic parameter Cmax was measured after administration into rat at 10 mg/kg; type: ADME, organism-based; design: dose 10 mg/kg; conditions: in vivo
[9] = Pharmacokinetic parameter Cmax was measured after administration into monkey at 3 mg/kg; type: ADME, organism-based; design: dose 3 mg/kg; conditions: cercopithecidae, in vivo, read-out: AUC
[10] = target: Histamine H3 receptor (Cavia porcellus) (UniProt Q9JI35); assay: Compound was evaluated for its binding affinity against Histamine H3 receptor of guinea pig brain membrane less then 50% inhibition when screened at 1 ug/mL
Cavia porcellus = assay: Effective dose was reported after intravenous administration to guinea pig; type: functional
[11] = target: Histamine H3 receptor (Cavia porcellus) (UniProt Q9JI35); assay: Compound was evaluated for its binding affinity against Histamine H3 receptor of guinea pig brain membrane, less then 50% inhibition when screened at 1 ug/mL

Chain of Histamine H3 receptor (Q9JI35 whole entry): as the sequence (Q9JI35 whole entry) above

## O=C(NCc1ccc(Cc2c[nH]cn2)cc1)NCc1cc(C(F)(F)F)cc(C(F)(F)F)c1
Histamine H3 receptor
  Ki: 90 nM

## O=C(NCc1ccc(Cc2c[nH]cn2)cc1)Nc1cnccn1
[1]
  inhibition: < 50%

## O=C(NCc1ccc(Cc2c[nH]cn2)cc1)Nc1cc(Cl)nc(Cl)c1
Histamine H3 receptor
  Ki: 3 nM

## O=C(Nc1ccc(Cc2c[nH]cn2)cc1)Nc1cc(Cl)cc(Cl)c1
[2]
  inhibition: 36%

## CN(Cc1ccc(Cc2cnc[nH]2)cc1)C(=O)N(C)c1cc(Cl)cc(Cl)c1
Histamine H3 receptor
  Ki: 370 nM

## O=C(NCCc1ccccc1Cl)NCc1ccc(Cc2c[nH]cn2)cc1
Histamine H3 receptor
  Ki: 430 nM

## O=C(NCc1cccc(Cc2c[nH]cn2)c1)Nc1cc(Cl)cc(Cl)c1
[2]
  inhibition: 33%

## O=C(NCc1ccc(Cc2c[nH]cn2)cc1)Nc1cccnc1
Histamine H3 receptor
  Ki: 270 nM

## O=C(NCc1ccc(Cc2c[nH]cn2)cc1)Nc1cc(Cl)cc(Cl)c1
[3]
  AUC: 18100 ng·h/mL
[4]
  bioavailability: 44%
[5]
  Concentration: 805 nM
[6]
  Concentration: 207 nM
Cercopithecidae
  AUC: 12600 ng·h/mL
[7]
  half-life: 4.4 h
[8]
  Cmax: 1700 ng/mL
[9]
  Cmax: 1700 ng/mL

## O=C(NCc1ccccc1)NCc1ccc(Cc2c[nH]cn2)cc1
[10]
  inhibition: < 50%

## O=C(Nc1ccc(Cl)cc1)OCc1ccc(Cc2c[nH]cn2)cc1
Histamine H3 receptor
  Ki: 25 nM

## O=C(Nc1ccccc1)OCc1ccc(Cc2c[nH]cn2)cc1
Histamine H3 receptor
  Ki: 37 nM

## N=C(NCc1ccc(Cl)cc1)c1ccc(Cc2c[nH]cn2)cc1
Cavia porcellus
  ED50: 0.3 mg/kg

## NC(=O)NCc1ccc(Cc2c[nH]cn2)cc1
[11]
  inhibition: < 50%
